Results published in the supplement of paper PMC10307832.

compound: N[C@@H]1CCCN(c2c(/C=C3\SC(=O)NC3=O)cccc2-c2ccccc2)C1 [AZD1208] + C[C@@H](Oc1cc(-c2cnn(C3CCNCC3)c2)cnc1N)c1c(Cl)ccc(F)c1Cl [Crizotinib] (partner 1 µM); experiment: relative viability (nuclei count vs DMSO), 5 days (fraction); higher = more cells survive; details: first compound 8 µM
Procedure, shortened: (§1)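 Relative viability equals treated-well nuclei counts divided by vehicle-well nuclei counts. Counts came from 4× images of lung cancer cell lines grown in 1536-well plates for 5 days after pin-tool dosing on the day after seeding. Dosing used one drug alone or a fixed anchor-drug dose plus five library-drug doses (not always all listed) in √10 steps, and values are medians of duplicate plates.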

Cell Line	relative viability
COR-L23	0.647
COR-L 105	0.68
LOU-NH91	0.721
ChaGo-K-1	0.9
NCI-H3122	0.285
HOP-62	0.969
HCC-44	0.82
LU99A	0.446
BEN	0.402
HARA	0.943
HCC-78	0.323
NCI-H441	0.42
LCLC-97TM1	0.294
NCI-H2023	0.446
A-427	0.767
NCI-H460	0.871
NCI-H727	0.703
NCI-H1734	0.464
NCI-H520	0.439
NCI-H2405	0.838
SW 1573	0.591
201T	1.14
NCI-H1915	0.845
HCC-827	0.936
LXF-289	0.928
NCI-H2347	0.588
NCI-H650	0.643

compound: CN1CCN(CC1)C2=CC(=C(C=C2)NC3=NC(=C(S3)C(=O)C4=C(C=CC=C4Cl)Cl)N)OC [XMD14-99] + CC(C)C[C@H](NC(=O)[C@H](Cc1ccccc1)NC(=O)c1cnccn1)B(O)O [Bortezomib] (partner 0.002 µM); experiment: as above; details: first compound 0.08 µM
Procedure, shortened: as §1

Cell Line	relative viability
PC-14	0.831
LCLC-103H	0.991
NCI-H596	0.962
EMC-BAC-2	0.989
NCI-H2087	0.85
HCC-366	1.04
NCI-H1666	0.872
NCI-H647	0.914
NCI-H2126	1.16
H3255	0.729
COR-L23	1
COR-L 105	0.841
LOU-NH91	0.498
ChaGo-K-1	1.06
NCI-H3122	0.965
HOP-62	0.604
HCC-44	0.882
LU99A	1.17
BEN	0.88

Cell Line	relative viability
HARA	1.15
HCC-78	0.443
NCI-H441	0.562
LCLC-97TM1	0.801
NCI-H2023	0.931
A-427	0.933
NCI-H460	1.06
NCI-H727	0.895
NCI-H1734	0.873
NCI-H520	0.622
NCI-H2405	1.06
SW 1573	1.09
201T	1.11
NCI-H1915	1.03
HCC-827	1.12
LXF-289	1.04
NCI-H2347	1.22
NCI-H650	0.97

same assay, conditions: first compound 0.8 µM

Cell Line	relative viability
PC-14	0.713
LCLC-103H	1.08
NCI-H596	1.07
EMC-BAC-2	1.08
NCI-H2087	0.705
HCC-366	1.05
NCI-H1666	0.782
NCI-H647	1.04
NCI-H2126	1.08
H3255	0.895
COR-L23	0.816
COR-L 105	0.805
LOU-NH91	0.416
ChaGo-K-1	1.02
NCI-H3122	0.948
HOP-62	0.694
HCC-44	0.823
LU99A	1.06
BEN	0.901

Cell Line	relative viability
HARA	1.14
HCC-78	0.482
NCI-H441	0.653
LCLC-97TM1	0.629
NCI-H2023	0.945
A-427	0.924
NCI-H460	1.15
NCI-H727	0.827
NCI-H1734	0.847
NCI-H520	0.604
NCI-H2405	0.99
SW 1573	0.868
201T	1.08
NCI-H1915	0.97
HCC-827	0.994
LXF-289	0.978
NCI-H2347	0.691
NCI-H650	0.847

same assay, conditions: first compound 2.53 µM

Cell Line	relative viability
PC-14	0.735
LCLC-103H	1.07
NCI-H596	1.07
EMC-BAC-2	0.995
NCI-H2087	0.709
HCC-366	1.03
NCI-H1666	0.825
NCI-H647	0.928
NCI-H2126	1.08
H3255	0.532
COR-L23	0.86
COR-L 105	0.614
LOU-NH91	0.451
ChaGo-K-1	0.964
NCI-H3122	0.913
HOP-62	0.863
HCC-44	0.933
LU99A	1.11
BEN	0.924

Cell Line	relative viability
HARA	0.922
HCC-78	0.461
NCI-H441	0.473
LCLC-97TM1	0.625
NCI-H2023	0.83
A-427	0.77
NCI-H460	0.983
NCI-H727	0.625
NCI-H1734	0.822
NCI-H520	0.425
NCI-H2405	0.9
SW 1573	0.932
201T	1.03
NCI-H1915	0.872
HCC-827	0.976
LXF-289	0.945
NCI-H2347	0.981
NCI-H650	0.724

same assay, conditions: first compound 8 µM

Cell Line	relative viability
PC-14	0.698
LCLC-103H	0.995
NCI-H596	0.797
EMC-BAC-2	0.923
NCI-H2087	0.45
HCC-366	0.884
NCI-H1666	0.629
NCI-H647	0.745
NCI-H2126	0.946
H3255	0.297
COR-L23	0.576
COR-L 105	0.473
LOU-NH91	0.447
ChaGo-K-1	0.92
NCI-H3122	0.692
HOP-62	0.605
HCC-44	0.806
LU99A	0.956
BEN	0.531
